Experiments:
[1] = molecular target: T1, GLS1 (purified recombinant human GAC) (Homo sapiens, UniProt O94925); assay: GLS1 enzymatic activity assay (dual-coupled, Amplex UltraRed/resorufin); type: biochemical
T1 sequence (O94925 55-598 isoform O94925-3 limits assumed): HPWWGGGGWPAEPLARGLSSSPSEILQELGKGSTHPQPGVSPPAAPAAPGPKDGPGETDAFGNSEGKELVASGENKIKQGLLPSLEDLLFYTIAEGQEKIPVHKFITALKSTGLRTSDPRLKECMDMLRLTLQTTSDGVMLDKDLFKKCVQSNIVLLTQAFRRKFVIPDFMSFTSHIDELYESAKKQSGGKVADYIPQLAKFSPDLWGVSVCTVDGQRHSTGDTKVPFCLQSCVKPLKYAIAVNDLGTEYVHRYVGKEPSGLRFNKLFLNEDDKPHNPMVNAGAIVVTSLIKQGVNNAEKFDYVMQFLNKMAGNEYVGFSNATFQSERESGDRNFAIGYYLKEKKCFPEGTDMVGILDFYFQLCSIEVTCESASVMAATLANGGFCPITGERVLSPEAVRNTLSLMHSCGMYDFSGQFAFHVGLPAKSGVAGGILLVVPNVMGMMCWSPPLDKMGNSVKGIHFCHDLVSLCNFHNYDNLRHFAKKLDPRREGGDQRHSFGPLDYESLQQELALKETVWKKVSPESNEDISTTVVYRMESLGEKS
Summary of the method: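 In this coupled fluorometric format, phosphate-activated GAC (2 nM, 50 mM phosphate) is pre-exposed to compound for 10 min before 1 mM glutamine addition. Product is tracked as resorufin (530/590 nm) over time or at 20 min, and potency is derived by logistic fitting.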

A549 cells = assay: A549 proliferation (viability) assay, Cell Titer Fluor, 72 hours; type: cell-based; settings: Homo sapiens
Summary of the method: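 1000 A549 cells/well, RPMI 1640/10% dialyzed FBS, 24 h attach; compound 72 h, 0.5% DMSO, 37 °C/5% CO2; Cell Titer Fluor fluorescence; EC50 via 4-parameter logistic.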

IC50 [1] | EC50 (A549 cells) | Compound
100 to 500 nM | 500 to 5000 nM | Cc1ccc(CNC(=O)c2cn(C[C@@H](F)CCn3ccc(NC(=O)Cc4ccccc4)c(F)c3=O)nn2)cn1 [Example 124, (S)-1-(2-fluoro-4-(3-fluoro-2-oxo-4-(2-phenylacetamido)pyridin-1(2H)-yl)butyl)-N-((6-methylpyridin-3-yl)methyl)-1H-1,2,3-triazole-4-carboxamide]
< 100 nM | < 100 nM | O=C(CC1CCC1)Nc1ccn(CCCCc2nnc(C(=O)NCc3cc(C(F)(F)F)ccn3)s2)c(=O)c1F [Example 465, 5-{4-[4-(2-cyclobutylacetamido)-3-fluoro-2-oxo-1,2-dihydropyridin-1-yl]butyl}-N-{[4-(trifluoromethyl)pyridin-2-yl]methyl}-1,3,4-thiadiazole-2-carboxamide]
< 100 nM | 100 to 500 nM | O=C(NCc1cc(C(F)(F)F)ccn1)c1cn(CC(F)CCn2ccc(COc3ccc(F)cc3F)cc2=O)nn1 (stereo not shown) [Example 484, 1-{4-[4-(2,4-difluorophenoxymethyl)-2-oxo-1,2-dihydropyridin-1-yl]-2-fluorobutyl}-N-{[4-(trifluoromethyl)pyridin-2-yl]methyl}-1H-1,2,3-triazole-4-carboxamide]
< 100 nM | 100 to 500 nM | O=C(Cc1ccccc1)Nc1ccn(CCC(F)Cn2cc(C(=O)NCc3cc(Br)ccn3)nn2)c(=O)c1 (stereo not shown) [Example 163, N-[(4-bromopyridin-2-yl)methyl]-1-{2-fluoro-4-[2-oxo-4-(2-phenylacetamido)-1,2-dihydropyridin-1-yl]butyl}-1H-1,2,3-triazole-4-carboxamide]
< 100 nM | 500 to 5000 nM | O=C(Cc1ccccn1)Nc1ccn(CCC(F)Cn2cc(C(=O)NCc3cccc(C(F)(F)F)c3)nn2)c(=O)c1 (stereo not shown) [Example 183, 1-(2-fluoro-4-{2-oxo-4-[2-(pyridin-2-yl)acetamido]-1,2-dihydropyridin-1-yl}butyl)-N-{[3-(trifluoromethyl)phenyl]methyl}-1H-1,2,3-triazole-4-carboxamide]
< 100 nM | 100 to 500 nM | O=C(Cc1cccc(OC(F)(F)F)c1)Nc1ccn(CCCCc2nnc(C(=O)NCc3ccccn3)s2)c(=O)c1 [Example 446, 5-[4-(2-oxo-4-{2-[3-(trifluoromethoxy)phenyl]acetamido}-1,2-dihydropyridin-1-yl)butyl]-N-(pyridin-2-ylmethyl)-1,3,4-thiadiazole-2-carboxamide]
< 100 nM | < 100 nM | O=C(CC1CCCCC1)Nc1ccn(CCC(F)Cn2cc(C(=O)NCc3cccc(C(F)(F)F)c3)nn2)c(=O)c1F (stereo not shown) [Example 264, 1-{4-[4-(2-cyclohexylacetamido)-3-fluoro-2-oxo-1,2-dihydropyridin-1-yl]-2-fluorobutyl}-N-{[3-(trifluoromethyl)phenyl]methyl}-1H-1,2,3-triazole-4-carboxamide]
< 100 nM | < 100 nM | O=C(Cc1ccccc1)Nc1ccc(CCCCn2ccc(NC(=O)Cc3ccccc3)nc2=O)nn1 [Example 20, N-(2-oxo-1-(4-(6-(2-phenylacetamido)pyridazin-3-yl)butyl)-1,2-dihydropyrimidin-4-yl)-2-phenylacetamide]
100 to 500 nM | 500 to 5000 nM | O=C(Cc1ccccc1)Nc1ccc(CCCCn2ccc(NC(=O)NC3CCCCC3)nc2=O)nn1 [Example 88, N-[6-(4-{4-[(cyclohexylcarbamoyl)amino]-2-oxo-1,2-dihydropyrimidin-1-yl}butyl)pyridazin-3-yl]-2-phenylacetamide]
100 to 500 nM | 100 to 500 nM | Cc1ccc(CNC(=O)c2nnc(CCCCn3ccc(NC(=O)C(=O)N4CCCCC4)c(F)c3=O)s2)cn1 [Example 463, 5-(4-{3-fluoro-2-oxo-4-[2-oxo-2-(piperidin-1-yl)acetamido]-1,2-dihydropyridin-1-yl}butyl)-N-[(6-methylpyridin-3-yl)methyl]-1,3,4-thiadiazole-2-carboxamide]
< 100 nM | < 100 nM | O=C(CN1CCCCC1)Nc1ccn(CCC(F)Cn2cc(C(=O)NCc3cccc(OC(F)(F)F)c3)nn2)c(=O)c1F (stereo not shown) [Example 288, 1-(2-fluoro-4-{3-fluoro-2-oxo-4-[2-(piperidin-1-yl)acetamido]-1,2-dihydropyridin-1-yl}butyl)-N-{[3-(trifluoromethoxy)phenyl]methyl}-1H-1,2,3-triazole-4-carboxamide]
< 100 nM | 100 to 500 nM | O=C(Nc1ccn(CCCCn2cc(C(=O)NCc3cccc(OC(F)(F)F)c3)nn2)c(=O)c1)OCc1ccccc1 [Example 42, benzyl N-(2-oxo-1-{4-[4-({[3-(trifluoromethoxy)phenyl]methyl}carbamoyl)-1H-1,2,3-triazol-1-yl]butyl}-1,2-dihydropyridin-4-yl)carbamate]
< 100 nM | 100 to 500 nM | CC(C)(C)OC(=O)Nc1ccn(CCCCn2cc(C(=O)NCc3cccc(C(F)(F)F)c3)nn2)c(=O)c1 [Example 139, tert-butyl N-(2-oxo-1-{4-[4-({[3-(trifluoromethyl)phenyl]methyl}carbamoyl)-1H-1,2,3-triazol-1-yl]butyl}-1,2-dihydropyridin-4-yl)carbamate]
< 100 nM | 100 to 500 nM | O=C(Cc1ccccc1)Nc1ccn(CC[C@H](F)Cn2cc(C(=O)NCc3cccc(C(F)(F)F)n3)nn2)c(=O)c1F [Example 126, (S)-1-(2-fluoro-4-(3-fluoro-2-oxo-4-(2-phenylacetamido)pyridin-1(2H)-yl)butyl)-N-((6-(trifluoromethyl)pyridin-2-yl)methyl)-1H-1,2,3-triazole-4-carboxamide]
< 100 nM | 500 to 5000 nM | O=C(NCc1cccc(OC(F)(F)F)c1)c1cn(CC(F)CCn2ccc(COc3cccc(Cl)c3)cc2=O)nn1 (stereo not shown) [Example 475, 1-{4-[4-(3-chlorophenoxymethyl)-2-oxo-1,2-dihydropyridin-1-yl]-2-fluorobutyl}-N-{[3-(trifluoromethoxy)phenyl]methyl}-1H-1,2,3-triazole-4-carboxamide]
500 to 5000 nM | > 5000 nM | Nc1ccn(CCCCc2ccc(NC(=O)Cc3cccc(OC(F)(F)F)c3)nn2)c(=O)n1 [Example 77, N-{6-[4-(4-amino-2-oxo-1,2-dihydropyrimidin-1-yl)butyl]pyridazin-3-yl}-2-[3-(trifluoromethoxy)phenyl]acetamide]
100 to 500 nM | 500 to 5000 nM | O=C(Cc1ccccc1)Nc1ccn(CCCCn2cc(C(=O)NCc3ccccc3)nn2)c(=O)c1 [Example 2, N-benzyl-1-(4-(2-oxo-4-(2-phenylacetamido)pyridin-1(2H)-yl)butyl)-1H-1,2,3-triazole-4-carboxamide]
< 100 nM | < 100 nM | O=C(CC1CCC1)Nc1ccn(CCC(F)Cn2cc(C(=O)NCc3cc(C(F)(F)F)ccn3)nn2)c(=O)c1F (stereo not shown) [Example 332, 1-{4-[4-(2-cyclobutylacetamido)-3-fluoro-2-oxo-1,2-dihydropyridin-1-yl]-2-fluorobutyl}-N-{[4-(trifluoromethyl)pyridin-2-yl]methyl}-1H-1,2,3-triazole-4-carboxamide]
< 100 nM | < 100 nM | Cc1ccc(CNC(=O)c2cn(CC(F)CCn3ccc(NC(=O)CC4CCCC4)c(F)c3=O)nn2)cn1 (stereo not shown) [Example 303, 1-{4-[4-(2-cyclopentylacetamido)-3-fluoro-2-oxo-1,2-dihydropyridin-1-yl]-2-fluorobutyl}-N-[(6-methylpyridin-3-yl)methyl]-1H-1,2,3-triazole-4-carboxamide]
< 100 nM | > 5000 nM | O=C(Cc1ccccc1)Nc1nnc(CCCCn2ccc(NC(=O)[C@@H](O)c3ccccc3)nc2=O)s1 [Example 83, (2S)-2-hydroxy-N-(2-oxo-1-{4-[5-(2-phenylacetamido)-1,3,4-thiadiazol-2-yl]butyl}-1,2-dihydropyrimidin-4-yl)-2-phenylacetamide]
< 100 nM | < 100 nM | CO[C@@H](C(=O)Nc1ccn(CCC(F)Cn2cc(C(=O)NCc3cccc(OC(F)(F)F)c3)nn2)c(=O)c1F)c1ccccc1 (stereo partly drawn) [Example 284, 1-(2-fluoro-4-{3-fluoro-4-[(2R)-2-methoxy-2-phenylacetamido]-2-oxo-1,2-dihydropyridin-1-yl}butyl)-N-{[3-(trifluoromethoxy)phenyl]methyl}-1H-1,2,3-triazole-4-carboxamide]
< 100 nM | < 100 nM | O=C(CC1CCCC1)Nc1ccn(CCC(F)Cn2cc(C(=O)NCc3ccc(CF)nc3)nn2)c(=O)c1F (stereo not shown) [Example 388, 1-{4-[4-(2-cyclopentylacetamido)-3-fluoro-2-oxo-1,2-dihydropyridin-1-yl]-2-fluorobutyl}-N-{[6-(fluoromethyl)pyridin-3-yl]methyl}-1H-1,2,3-triazole-4-carboxamide]
< 100 nM | < 100 nM | O=C(CC1CCCCC1)Nc1ccn(CCC(F)Cn2cc(C(=O)NCc3cccc(OC(F)(F)F)c3)nn2)c(=O)c1F (stereo not shown) [Example 212, 1-{4-[4-(2-cyclohexylacetamido)-3-fluoro-2-oxo-1,2-dihydropyridin-1-yl]-2-fluorobutyl}-N-{[3-(trifluoromethoxy)phenyl]methyl}-1H-1,2,3-triazole-4-carboxamide]

Source: patent publication US20160002204A1 (Board of Regents, The University of Texas System, priority 2014, published 2016)
